Assay results as given in BindingDB's records for doi:10.1111/j.1747-0285.2012.01328.x (Technical University of LÓDz, 2012).

biological target: HIV-1 protease (Human immunodeficiency virus, UniProt O90785); assay: Fluorometric Assay
From the text: The Ki value were determine by a fluorometric assay with the fluorogenic and chromogenic substrate.

HIV-1 protease, sequence (O90785 whole entry): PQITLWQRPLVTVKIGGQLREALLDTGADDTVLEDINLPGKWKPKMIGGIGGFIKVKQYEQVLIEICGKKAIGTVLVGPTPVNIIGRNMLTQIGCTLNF

IC50 [nM]	Ki [nM]	Structure (SMILES)
3	4.8	Cc1ccccc1C(=O)N[C@@H](Cc1ccccc1)C[C@H](O)[C@H](Cc1ccccc1)NC(=O)c1ccccc1C [3-Hexanol derivative, 2]
1	4.6	Cc1c(O)cccc1C(=O)N[C@@H](Cc1ccccc1)[C@@H](O)C[C@H](Cc1ccccc1)NC(=O)c1ccccc1 [3-Hexanol derivative, 1]
0.17	0.021	CC(C)[C@@H](C(=O)N[C@@H](Cc1ccccc1)[C@@H](O)C[C@H](Cc1ccccc1)NC(=O)OC(C)(C)C)N(C)C(=O)OCc1ccccn1 [3-Hexanol derivative, 4]
0.63	0.32	Cc1c(O)cccc1C(=O)N[C@@H](Cc1ccccc1)[C@@H](O)C[C@H](Cc1ccccc1)NC(=O)OC1CCOC1 (stereo partly drawn) [3-Hexanol derivative, 3]
